Experimental data published in patent US20080269267A1, “KINASE INHIBITORS USEFUL FOR THE TREATMENT OF MYLEOPROLIFIC DISEASES AND OTHER PROLIFERATIVE DISEASES” (Deciphera Pharmaceuticals, LLC, priority 2007, published 2008).
Structures can show the parent of a compound that is named as a salt.

Columns and labels:
[1] = biological target: T1, BaF3 cells transfected with wild type p210 BCR-Abl (Homo sapiens, UniProt P00519); assay: Ba/F3 p210 whole cell proliferation assay (Cell Titer Blue, 72 hours); format: cell-based; settings: 72 hours incubation; read-out: Ba/F3 p210 whole cell proliferation assay, antiproliferation IC50
T1 construct: fused on or other part: P11274 (Breakpoint cluster region protein)
Experimental: (§1) BaF3 cells (parental or transfected with the following: wild type p210 BCR-Abl and T315I p210 BCR-Abl was obtained from Professor Richard Van Etten (New England Medical Center, Boston, Mass.). Briefly, cells were grown in RPMI 1640 supplemented with 10% characterized fetal bovine serum (HyClone, Logan, Utah) at 37 degrees Celsius, 5% CO2, 95% humidity. Cells were allowed to expand until reaching 80% saturation at which point they were subcultured or harvested for assay use.
(§2) A serial dilution of test compound was dispensed into a 96 well black clear bottom plate (Corning, Corning, N.Y.). For each cell line, three thousand cells were added per well in complete growth medium. Plates were incubated for 72 hours at 37 degrees Celsius, 5% CO2, 95% humidity. At the end of the incubation period Cell Titer Blue (Promega, Madison, Wis.) was added to each well and an additional 4.5 hour incubation at 37 degrees Celsius, 5% CO2, 95% humidity was performed. Plates were then read on a BMG Fluostar Optima (BMG, Durham, N.C.) using an excitation of 544 nm and an emission of 612 nm. Data was analyzed using Prism software (Graphpad, San Diego, Calif.) to calculate IC50's.

[2] = biological target: T2, BaF3 cells transfected with T315I p210 BCR-Abl (Homo sapiens, UniProt P00519, T315I, cells depend on it); assay: Ba/F3 p210 T315I whole cell proliferation assay (Cell Titer Blue, 72 hours); format: cell-based; settings: 72 hours incubation; read-out: Ba/F3 p210 T315I whole cell proliferation assay, antiproliferation IC50
T2 construct: fused on or other part: P11274 (Breakpoint cluster region protein)
Experimental: as §1, §2

[3] = biological target: T3, T315I Abl kinase (SEQ ID NO:2) (Homo sapiens, UniProt P00519, T315I); assay: T315I Abl kinase assay (pyruvate kinase/lactate dehydrogenase coupled); settings: 1 h preincubation at 30° C., ATP 500 μM; read-out: Abl T315l Enzyme Assay, biochemical IC50
T3 construct: purchased deCode Genetics
T3 sequence (P00519 with tags, fused parts or gaps T315I): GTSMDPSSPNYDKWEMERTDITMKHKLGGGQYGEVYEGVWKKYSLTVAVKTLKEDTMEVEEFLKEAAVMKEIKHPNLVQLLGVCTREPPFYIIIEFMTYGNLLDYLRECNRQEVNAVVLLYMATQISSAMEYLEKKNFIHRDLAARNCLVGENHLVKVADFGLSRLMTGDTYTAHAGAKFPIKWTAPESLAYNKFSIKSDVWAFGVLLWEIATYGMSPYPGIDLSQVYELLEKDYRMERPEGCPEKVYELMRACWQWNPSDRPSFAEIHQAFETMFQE
Experimental: Abl Kinase (SEQ ID NO:2) Assay
Activity of T315I Abl kinase (SEQ ID NO:2) was determined by following the production of ADP from the kinase reaction through coupling with the pyruvate kinase/lactate dehydrogenase system (e.g., Schindler, et al. Science (2000) 289, 1938-1942). In this assay, the oxidation of NADH (thus the decrease at A340nm) was continuously monitored spectrophometrically. The reaction mixture (100 μl) contained Abl kinase (4.4 nM. […] Abl from deCode Genetics), peptide substrate (EAIYAAPFAKKK, 0.2 mM), MgCl2 (10 mM), pyruvate kinase (4 units), lactate dehydrogenase (0.7 units), phosphoenol pyruvate (1 mM), and NADH (0.28 mM) in 90 mM Tris buffer containing 0.2% octyl-glucoside and 1% DMSO, pH 7.5. Test compounds were incubated with T315I Abl (SEQ ID NO:2) and other reaction reagents at 30° C. for 1 h before ATP (500 μM) was added to start the reaction. The absorption at 340 nm was monitored continuously for 2 hours at 30° C. on Polarstar Optima plate reader (BMG). The reaction rate was calculated using the 1.0 to 2.0 h time frame. Percent inhibition was obtained by comparison of reaction rate with that of a control (i.e. with no test compound). IC50 values were calculated from a series of percent inhibition values determined at a range of inhibitor concentrations using software routines as implemented in the GraphPad Prism software package.

[4] = biological target: T4, C-Met kinase (SEQ ID NO:10) (Homo sapiens, UniProt P08581); assay: C-Met kinase assay (pyruvate kinase/lactate dehydrogenase coupled); settings: 0.5 h preincubation at 22° C., ATP 100 μM; read-out: c-Met Enzyme Assay, biochemical IC50
T4 construct: purchased Invitrogen PV3143
Experimental: C-Met Kinase (SEQ ID NO:10) Assay
Activity of C-Met kinase (SEQ ID NO:10) was determined by following the production of ADP from the kinase reaction through coupling with the pyruvate kinase/lactate dehydrogenase system (e.g., Schindler, et al. Science (2000) 289, 1938-1942). In this assay, the oxidation of NADH (thus the decrease at A340 nm) was continuously monitored spectrophometrically. The reaction mixture (100 μl) contained C-Met (c-Met residues; 956-1390, from Invitrogen, catalogue #PV3143, 6 nM), polyE4Y (1 mg/ml), MgCl2 (10 mM), pyruvate kinase (4 units), lactate dehydrogenase (0.7 units), phosphoenol pyruvate (1 mM), and NADH (0.28 mM) in 90 mM Tris buffer containing 0.25 mM DTT, 0.2% octyl-glucoside and 1% DMSO, pH 7.5. Test compounds were incubated with C-Met (SEQ ID NO:10) and other reaction reagents at 22° C. for 0.5 h before ATP (100 μM) was added to start the reaction. The absorption at 340 n=was monitored continuously for 2 hours at 30° C. on Polarstar Optima plate reader (BMG). The reaction rate was calculated using the 1.0 to 2.0 h time frame. Percent inhibition was obtained by comparison of reaction rate with that of a control (i.e. with no test compound). IC50 values were calculated from a series of percent inhibition values determined at a range of inhibitor concentrations using software routines as implemented in the GraphPad Prism software package.

T4 sequence (P08581 with tags, fused parts or gaps): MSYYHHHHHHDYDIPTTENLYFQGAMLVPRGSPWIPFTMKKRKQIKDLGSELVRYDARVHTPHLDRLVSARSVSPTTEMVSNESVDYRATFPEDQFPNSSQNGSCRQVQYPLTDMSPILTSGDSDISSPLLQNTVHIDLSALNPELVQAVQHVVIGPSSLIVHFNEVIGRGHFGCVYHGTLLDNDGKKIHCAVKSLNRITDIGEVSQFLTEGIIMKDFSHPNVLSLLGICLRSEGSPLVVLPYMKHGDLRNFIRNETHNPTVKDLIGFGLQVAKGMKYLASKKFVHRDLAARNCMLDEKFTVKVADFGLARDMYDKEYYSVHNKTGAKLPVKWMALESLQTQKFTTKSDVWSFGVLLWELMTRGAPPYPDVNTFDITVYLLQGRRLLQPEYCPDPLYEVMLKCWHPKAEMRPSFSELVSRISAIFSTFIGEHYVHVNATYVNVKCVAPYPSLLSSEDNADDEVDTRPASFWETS

Row | GI50 [1] | GI50 [2] | IC50 [3] | IC50 [4] | Molecule
1 | < 100 nM | < 100 nM | < 100 nM | < 100 nM | Cn1cc(-c2cc(Oc3ccc(NC(=O)Nc4cc(C(C)(C)C)nn4-c4ccc(C#N)cc4)c(F)c3)ccn2)cn1 [Example 6, 1-(3-tert-butyl-1-(4-cyanophenyl)-1H-pyrazol-5-yl)-3-(2-fluoro-4-(2-(1-methyl-1H-pyrazol-4-yl)pyridin-4-yloxy)phenyl)urea]
2 | < 100 nM | < 100 nM | < 100 nM | < 100 nM | CC(C)c1cc(NC(=O)Nc2ccc(Oc3ccnc(-c4cnn(C)c4)c3)c(F)c2F)n(-c2cccc(C#N)c2)n1 [Example 13, 1-(1-(3-cyanophenyl)-3-isopropyl-1H-pyrazol-5-yl)-3-(2,3-difluoro-4-(2-(1-methyl-1H-pyrazol-4-yl)pyridin-4-yloxy)phenyl)urea]
3 | < 1000 nM | < 10000 nM | < 100 nM | < 1000 nM | Cn1cc(-c2cc(Oc3ccc(NC(=O)Nc4cc(-c5ccccc5F)nn4C)c(F)c3F)ccn2)cn1 [Example 25, 1-(2,3-difluoro-4-(2-(1-methyl-1H-pyrazol-4-yl)pyridin-4-yloxy)phenyl)-3-(3-(2-fluorophenyl)-1-methyl-1H-pyrazol-5-yl)urea]
4 | < 100 nM | < 100 nM | < 100 nM | < 100 nM | Cn1cc(-c2cc(Oc3ccc(NC(=O)Nc4cc(C(C)(C)C)nn4-c4ccc(CO)cc4)c(F)c3)ccn2)cn1 [Example 8, 1-(3-tert-butyl-1-(4-(hydroxymethyl)phenyl)-1H-pyrazol-5-yl)-3-(2-fluoro-4-(2-(1-methyl-1H-pyrazol-4-yl)pyridin-4-yloxy)phenyl)urea]
5 | < 100 nM | < 100 nM | < 100 nM | < 100 nM | Cn1cc(-c2cc(Oc3ccc(NC(=O)Nc4cc(C(C)(C)C)nn4-c4cccc(C#N)c4)c(F)c3)ccn2)cn1 [Example 4, 1-(3-tert-butyl-1-(3-cyanophenyl)-1H-pyrazol-5-yl)-3-(2-fluoro-4-(2-(1-methyl-1H-pyrazol-4-yl)pyridin-4-yloxy)phenyl)urea hydrochloride]
6 | < 100 nM | < 100 nM | < 100 nM | < 100 nM | Cc1ccc(-n2nc(C(C)C)cc2NC(=O)Nc2ccc(Oc3ccnc(-c4cnn(C)c4)c3)cc2F)cc1C#N [Example 11, 1-(1-(3-cyano-4-methylphenyl)-3-isopropyl-1H-pyrazol-5-yl)-3-(2-fluoro-4-(2-(1-methyl-1H-pyrazol-4-yl)pyridin-4-yloxy)phenyl)urea]
7 | < 100 nM | < 100 nM | < 100000 nM | < 10000 nM | 1-(2-tert-butyl-4-(pyridin-3-yl)pyrimidin-5-yl)-3-(2-fluoro-5-(8-methyl-2-(methylamino)-7-oxo-7,8-dihydropyrido[2,3-d]pyrimidin-6-yl)phenyl)urea [Example 10]
8 | < 100 nM | < 100 nM | < 100000 nM | < 10000 nM | Cc1ncc(NC(=O)Nc2ccc(Oc3ccnc(-c4cnn(C)c4)c3)cc2F)c(-c2ccccc2)n1 [Example 14, 1-(2-fluoro-4-(2-(1-methyl-1H-pyrazol-4-yl)pyridin-4-yloxy)phenyl)-3-(2-methyl-4-phenylpyrimidin-5-yl)urea]
9 | < 100 nM | < 100 nM | < 100 nM | < 1000 nM | CCc1cc(NC(=O)Nc2ccc(Oc3ccnc(-c4cnn(C)c4)c3)cc2F)n(-c2ccc(CO)cc2)n1 [Example 19, 1-(3-ethyl-1-(4-(hydroxymethyl)phenyl)-1H-pyrazol-5-yl)-3-(2-fluoro-4-(2-(1-methyl-1H-pyrazol-4-yl)pyridin-4-yloxy)phenyl)urea]
10 | < 100 nM | < 100 nM | < 100 nM | < 1000 nM | CCc1cc(NC(=O)Nc2ccc(Oc3ccnc(-c4cnn(C)c4)c3)cc2F)n(-c2cccc(C#N)c2)n1 [Example 9, 1-(1-(3-cyanophenyl)-3-ethyl-1H-pyrazol-5-yl)-3-(2-fluoro-4-(2-(1-methyl-1H-pyrazol-4-yl)pyridin-4-yloxy)phenyl)urea]
